The text below walks through data of paper PMC6254274, “Cytotoxic Components of Pereskia bleo (Kunth) DC. (Cactaceae) Leaves” (Molecules, 2009).

Data set [1] concerns human cervical carcinoma cell line (CasKi). The data set is described as follows: In vitro Neutral Red cytotoxicity assay, CasKi. The data set is classed as cell-based. The conditions noted are these: 72 h; for IC50: read-out: Cytotoxicity (IC50) CasKi. From the text: (§1) No effect due to the DMSO was observed. Doxorubicin was used as the positive control. The well containing untreated cells was the negative control.
(§2) Cytotoxicity of each sample is expressed as IC50 value.

Data set [2] deals with human colon carcinoma cell line (HCT 116). The data set is described as follows: In vitro Neutral Red cytotoxicity assay, HCT 116. The conditions noted are these: for IC50: read-out: Cytotoxicity (IC50) HCT 116. Format: cell-based.
From the text: as §1, §2

The test system of data set [3] is human lung carcinoma cell line (A549). Put plainly: In vitro Neutral Red cytotoxicity assay, A549. To be noted: for IC50: read-out: Cytotoxicity (IC50) A549. The procedure:
The in vitro cytotoxicity assay was carried out using a Neutral Red cytotoxicity assay as previously described by Borenfreund and Puerner with some modifications; this test determines the accumulation of the Neutral Red dye in the lysosomes of viable and uninjured cells.
Human nasopharyngeal epidermoid carcinoma cell line (KB), human cervical carcinoma cell line (CasKi), human colon carcinoma cell line (HCT 116), human hormone-dependent breast carcinoma cell line (MCF7), human lung carcinoma cell line (A549) and non-cancer human fibroblast cell line (MRC-5) were purchased from the American Tissue Culture Collection (ATCC, USA). KB cells were maintained in Medium 199 (Sigma), CasKi, A549 and MCF7 cells in RPMI 1640 medium (Sigma), HCT 116 in McCOY’S 5A Medium (Sigma) and MRC-5 cells in EMEM (Eagle Minimum Essential Medium) (Sigma), supplemented with 10% foetal bovine serum (FBS, PAA Lab, Austria), 100 µg/mL penicillin or streptomycin (PAA Lab, Austria) and 50 µg/mL of fungizone (PAA Lab, Austria). The cells were cultured in a 5% CO2 incubator (Shel Lab water-jacketed) kept at 37°C in a humidified atmosphere.
The Neutral Red cytotoxicity assay is based on the initial protocol described by Borenfreund and Puerner with some modifications. Briefly, the cells (1x10^4/well) were seeded in 96-well microtiter plates (Nunc) and allowed to grow for 24 hours before treatment. After 24 hours of incubation, the cells were treated with six different concentrations (0.1-100 µg/mL) of test compounds, in three replicates. The plates were further incubated for 72 h at 37°C in a 5% CO2 incubator. A stock solution was initially obtained by dissolving the test compounds in DMSO. Further dilution to different tested concentrations were then carried out ensuring that the final concentration of DMSO in the test and control wells was not in excess of 1% (v/v). […] The well containing untreated cells was the negative control. At the end of the incubation period, the media were replaced with medium containing 50 µg/mL of Neutral Red. The plates were incubated for another 3 hours to allow for uptake of the vital dye into the lysosomes of viable and […] cells. After the incubation period, the media were removed and cells were washed with the neutral red washing solution. The dye was eluted from the cells by adding 200 µL of Neutral Red resorb solution and incubated for 30 minutes at room temperature with rapid agitation on a microtiter plate shaker. Dye absorbance was measured at 540 nm using a spectrophotometer ELISA plate reader. The average data from triplicates were expressed in terms of killing percentage relative to negative control. The percentage of inhibition (%) of each of the test samples was calculated according to the following formula: [drawing 1] where OD control: Optical Density of negative control; OD sample: Optical Density of sample
Cytotoxicity of each sample is expressed as IC50 value. The IC50 value is the concentration of test compounds that cause 50 % inhibition or cell death, averaged from the three experiments, and was obtained by plotting the percentage inhibition versus concentration of test compounds. […] However, we recognized that whether an IC50 value corresponds to a significant or non-significant cytotoxicity depends on the sensitivity of the cell line.

Data set [4] deals with human nasopharyngeal epidermoid carcinoma cell line (KB). The data set is described as follows: In vitro Neutral Red cytotoxicity assay, KB. Format: cell-based. The conditions noted are these: 72 h; for IC50: read-out: Cytotoxicity (IC50) KB.
From the text: as §1, §2

The subject of data set [5] is human hormone-dependent breast carcinoma cell line (MCF7). Put plainly: In vitro Neutral Red cytotoxicity assay, MCF7. Format: cell-based. The conditions noted are these: for IC50: read-out: Cytotoxicity (IC50) MCF7.
From the text: The well containing untreated cells was the negative control.
as §2

Data set [6] can be described thus: In vitro Neutral Red cytotoxicity assay, MRC-5. Format: cell-based, human. The conditions noted are these: human.
From the text: as §1, §2

In data set [7] the test system is non-cancer human fibroblast cell line (MRC-5). Put plainly: In vitro Neutral Red cytotoxicity assay, MRC-5. Format: cell-based. To be noted: MRC-5 cells, 72 h.
From the text: as §1, §2

The mark [8] stands for this setting: Homo sapiens, Ca-Ski, CasKi cells, Neutral Red.
The mark [9] stands for this setting: Homo sapiens, Ca-Ski, CasKi cells, Neutral Red, value in parentheses.
Where [10] appears, read: Homo sapiens, HCT 116 cells, 72 h, Neutral Red.
Setting [11] is: Homo sapiens, HCT 116 cells, 72 h, Neutral Red, value in parentheses.
[12] abbreviates: Homo sapiens, KB cells, Neutral Red.
The mark [13] stands for this setting: Homo sapiens, KB cells, Neutral Red, value in parentheses.
[14] abbreviates: Homo sapiens, MCF7 cells, 72 h, Neutral Red.
Setting [15] is: Homo sapiens, MCF7 cells, 72 h, Neutral Red, value in parentheses.
Where [16] appears, read: MRC-5 cells (non-cancer fibroblast cell line).
Where [17] appears, read: MRC-5 cells (non-cancer fibroblast cell line), value in parentheses.

Where “and” joins values, the source holds several entries; their conditions need not be identical. Equal values may be shown once. Read-outs that look alike come from different tables or passages of the source.

On to `CC(C)(C)c1ccc(O)c(C(C)(C)C)c1` [2,4-di tert butylphenol (5), 2,4-di-tert-butylphenol], for which the half-inhibitory concentration (IC50) (commonly the midpoint of a concentration-inhibition curve) in data set [1] (setting [8]) is 4.5 µg/mL; in data set [1] (setting [9]) it was 21.8 µM; in data set [2] (setting [10]), 29 µg/mL; in data set [2] (setting [11]), 141 µM; in data set [3] (Homo sapiens, A549, 72 h) it was 6 µg/mL and 29.1 µM; in data set [4] (setting [12]), 0.81 µg/mL. The results for the IC50 in data set [4] (setting [13]), in data set [5] (setting [14]) and in data set [5] (setting [15]) were 3.93 µM, 5.75 µg/mL and 27.9 µM, respectively. The IC50 at 72 h was determined as 20 µg/mL in data set [6] (setting [16]) and 97.1 µM in data set [6] (setting [17]).

With `COc1cccc2c1C(=O)c1c(O)c3c(c(O)c1C2=O)C[C@@](O)(C(=O)CO)C[C@@H]3O[C@H]1C[C@H](N)[C@H](O)[C@H](C)O1` [Doxorubicin, reference compound], the IC50 in data set [1] (setting [8]) was 0.006 µg/mL; in data set [1] (setting [9]), 0.011 µM; in data set [2] (setting [10]) it was 0.36 µg/mL; in data set [2] (setting [11]), 0.663 µM; in data set [3] (Homo sapiens, A549, 72 h), 0.22 µg/mL and 401 nM; in data set [4] (setting [12]) it was 0.013 µg/mL. The half-maximal inhibitory concentration (IC50) in data set [4] (setting [13]) amounted to 0.023 µM. Further, the IC50 at 72 h in data set [6] (setting [16]) came to 0.55 µg/mL; in data set [6] (setting [17]), 1.01 µM.

`Cc1c(C)c2c(c(C)c1O)CC[C@@](C)(CCC[C@H](C)CCC[C@H](C)CCCC(C)C)O2` [α-tocopherol (6), α-tocopherol]: the IC50 is 6 µg/mL in data set [1] (setting [8]); 14 µM in data set [1] (setting [9]); 31 µg/mL in data set [2] (setting [10]); 72.1 µM in data set [2] (setting [11]); 6 µg/mL and 13.9 µM in data set [3] (Homo sapiens, A549, 72 h); 8 µg/mL in data set [4] (setting [12]). Besides, the half-inhibitory concentration (IC50) in data set [4] (setting [13]) was 18.6 µM; in data set [5] (setting [14]), 7.5 µg/mL; in data set [5] (setting [15]), 17.4 µM. Also, the 50% inhibitory concentration (IC50) at 72 h in data set [6] (setting [16]) worked out at 30.5 µg/mL; in data set [6] (setting [17]), 70.9 µM.

For `CC1(C)CCCC2(C)OC(=O)C=C12` (stereo not shown) [Dihydroactinidiolide (1), Dihydroactinidiolide], the concentration for half-maximal inhibition (IC50) was 40 µg/mL in data set [1] (setting [8]); 222 µM in data set [1] (setting [9]); 5 µg/mL in data set [2] (setting [10]); 27.8 µM in data set [2] (setting [11]); 97 µg/mL and 539 µM in data set [3] (Homo sapiens, A549, 72 h); 6.7 µg/mL in data set [4] (setting [12]). For the same compound, the results for the IC50 in data set [4] (setting [13]), in data set [5] (setting [14]) and in data set [5] (setting [15]) were 37.2 µM, 30 µg/mL and 167 µM, respectively. The figures for the IC50 at 72 h in data set [6] (setting [16]) and in data set [6] (setting [17]) were 91.3 µg/mL and 507 µM, respectively.

For the compound phytol [Phytol (7)], in data set [1] (CasKi cells, Neutral Red), the “Cytotoxicity (IC50) CasKi” value was 18 µg/mL. For the same compound, the half-maximal inhibitory concentration (IC50) was determined as 60.8 µM in data set [1] (CasKi cells, Neutral Red, value in parentheses); 338 µM in data set [2] (HCT 116 cells, 72 h, Neutral Red, value in parentheses); 105 µM in data set [3] (A549 cells, 72 h, Neutral Red, value in parentheses); 24 µM in data set [4] (KB cells, Neutral Red, value in parentheses); 115 µM in data set [5] (MCF7 cells, 72 h, Neutral Red, value in parentheses); 251 µM in data set [7] (value in parentheses). Moreover, in data set [2] (HCT 116 cells, 72 h, Neutral Red), the “Cytotoxicity (IC50) HCT 116” value is recorded as 100 µg/mL. In addition, the “Cytotoxicity (IC50) A549” value in data set [3] (A549 cells, 72 h, Neutral Red) was determined as 31 µg/mL. The “Cytotoxicity (IC50) KB” value in data set [4] (KB cells, Neutral Red) was 7.1 µg/mL. Moreover, the “Cytotoxicity (IC50) MCF7” value in data set [5] (MCF7 cells, 72 h, Neutral Red) is listed as 34 µg/mL. For the same compound, the “Cytotoxicity (IC50) MRC-5” value in data set [7] was found to be 74.3 µg/mL.

In the case of `CC[C@H](CC[C@@H](C)[C@H]1CC[C@H]2[C@@H]3CC=C4C[C@@H](O)CC[C@]4(C)[C@H]3CC[C@]12C)C(C)C` [β -sitosterol (4), β-sitosterol], the IC50 was 62 µg/mL and 150 µM in data set [1] (Homo sapiens, Ca-Ski); > 100 µg/mL and > 242 µM in data set [2] (Homo sapiens, HCT-116, 72 h); 78 µg/mL and 188 µM in data set [3] (Homo sapiens, A549, 72 h); > 100 µg/mL and > 242 µM in data set [4] (Homo sapiens, KB); 72 µg/mL and 174 µM in data set [5] (Homo sapiens, MCF7, 72 h). For the same compound, the concentration for half-maximal inhibition (IC50) at 72 h in data set [6] (MRC-5 cells) was greater than 100 µg/mL; in data set [6] (MRC-5 cells, value in parentheses), greater than 242 µM.
